These results are taken from publication PMC9826346, “One‐Pot Chemoenzymatic Synthesis of Microviridin Analogs Containing Functional Tags” (Chembiochem, 2022).

One series has as its target bovine trypsin (Bos taurus, UniProt P00760). Briefly: biochemical. The procedure:
(§1) Protease inhibition assay: Microviridins were checked for their inhibitory activity against trypsin and elastase. Therefore, microviridin concentrations of 0.01 μM, 0.1 μM, 1 μM, 10 μM and 100 μM were tested. A sample without microviridin was used as control. As substrates N α‐Benzoyl‐DL‐arginine 4‐nitroanilide hydrochloride (BAPNA) was used for the trypsin assay and N‐Succinyl‐Ala‐Ala‐Ala‐p‐nitroanilide (Suc‐AAA‐pNA) for the elastase assays. The trypsin assay was performed with 16.7 μg/mL (approximately 42.7 U/mL) bovine trypsin (Carl Roth (Germany)) and 108.5 μg/mL BAPNA (Sigma‐Aldrich (Germany)) in 50 mM Tris‐HCl, 20 mM CaCl2, 0.5 % DMSO, pH 7.5. The elastase assay was performed with 50 μg/mL (250 mU/mL) porcine pancreas elastase (Sigma‐Aldrich (Germany) and 500 μg/mL Suc‐AAA‐pNA (Sigma‐Aldrich (Germany)) in 50 mM Tris‐HCl, 20 mM CaCl2, pH 7.5. All microviridins were dissolved in water to a concentration of 500 μM except of tricyclic MvB_CP_N(dansyl), which was dissolved in water containing 10 % DMSO. Before adding the substrate, each enzyme was incubated for 5 min with the respective inhibitor at room temperature. Afterwards, the substrate was added, and the assays were incubated for 15 min (elastase assay) and 30 min (trypsin assay) at 37 °C. The enzymatic activity was measured spectrophotometrically (Varioscan Flash, Thermo Scientific) at 410 nm. The assays were done twice for each sample. IC50 values were calculated using the Quest Graph™ IC50 Calculator.[21]

The target of the next series is trypsin. Conditions: read-out: KD for the interaction of trypsin and microviridin J; cited from earlier work. The source says: Naturally, microviridins act as competitive inhibitors that bind tightly to their corresponding proteases in a substrate‐like manner, for which turnover is excluded. […] Therefore, the chemical probes that show protease inhibition in the range of the unmodified microviridin derivatives could be expected to work as molecular tools. However, since the activity of dansylated microviridin B is clearly compromised (Table 1), the compound's affinity for elastase might not be strong enough for diagnos ...

The subject of a further series is Daphnia. Conditions: microcrustaceans of the genus Daphnia; cited from earlier work. The source says:
While the bioactivity and mode of action against mammalian serine proteases is well investigated for microviridins[[2a], [8]] and plesiocin,[9] their ecological roles and native targets remain elusive. […] However, neither specific protease targets could be identified, nor could a mode of action be specified. One hypothesis is based on the depletion of the amino acid pool essential for ...

Series [1] addresses porcine pancreas elastase (Sus scrofa, UniProt P00772). Briefly: biochemical. The procedure:
as §1

In general, IC50 refers to the concentration at which inhibition is half-maximal. Low values mean higher potency, high ones lower potency. Broadly, the Kd is a measure of binding affinity in units of concentration.

Bridge positions count the residues as written; N and C are the ends. Peptide text beside a SMILES is read from it. * marks the point of attachment. Biotin = O=C1N[C@H]2[C@H](CS[C@H]2CCCCC(=O)*)N1; Dansyl = CN(C)c1cccc2c(S(=O)(=O)*)cccc12; Propargyl = C#CC*

bovine trypsin, sequence (P00760 24-246): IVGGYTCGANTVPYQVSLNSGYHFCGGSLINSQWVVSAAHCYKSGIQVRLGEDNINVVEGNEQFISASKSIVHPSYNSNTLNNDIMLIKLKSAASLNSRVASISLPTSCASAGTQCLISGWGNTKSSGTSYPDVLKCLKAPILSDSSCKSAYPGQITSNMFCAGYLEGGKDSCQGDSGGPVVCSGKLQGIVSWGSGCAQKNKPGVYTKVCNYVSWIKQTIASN
porcine pancreas elastase, sequence (P00772 27-266): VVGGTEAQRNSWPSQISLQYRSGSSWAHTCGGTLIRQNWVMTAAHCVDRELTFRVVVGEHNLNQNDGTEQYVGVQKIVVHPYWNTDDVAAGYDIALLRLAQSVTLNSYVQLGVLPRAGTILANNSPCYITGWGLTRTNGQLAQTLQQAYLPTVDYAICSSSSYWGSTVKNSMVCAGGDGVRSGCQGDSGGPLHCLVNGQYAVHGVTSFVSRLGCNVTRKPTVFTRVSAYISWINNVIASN

As to `C#CCOc1ccc(C[C@H](N)C(=O)N[C@H](C(=O)N[C@@H](CO)C(=O)N[C@@H]2C(=O)N[C@@H](CCCNC(=N)N)C(=O)N[C@H]3CCCCNC(=O)CC[C@@H](C(=O)N[C@@H](Cc4c[nH]c5ccccc45)C(=O)O)NC(=O)[C@@H]4CCC(=O)OC[C@H](NC(=O)[C@@H]5CCCN5C(=O)[C@H](Cc5ccc(O)cc5)NC3=O)C(=O)N[C@@H](CC(=O)O[C@@H]2C)C(=O)N[C@@H](Cc2c[nH]c3ccccc23)C(=O)N4)[C@@H](C)CC)cc1` [MvJ_CP_N(Prop)cy3 (3)] (H-Y(Propargyl)ISTRKYPSDWEEW-OH; ester 4-10, 9-12; lactam 6-13), the half-inhibitory concentration (IC50) against bovine trypsin was 1.64 ± 0.12 µM. As to microviridin J, the dissociation constant Kd on trypsin is 0.68 µM. Moreover, the “Effect on Daphnia” value in the series with Daphnia was “lethal molting disruption”.

In the case of `CC(C)C[C@@H]1NC(=O)[C@@H](NC(=O)[C@@H](NC(=O)CNC(=O)[C@@H](N)Cc2ccccc2)[C@@H](C)O)[C@@H](C)OC(=O)C[C@@H]2NC(=O)[C@@H]3COC(=O)CC[C@H](NC(=O)[C@H](Cc4c[nH]c5ccccc45)NC2=O)C(=O)N[C@H](C(=O)N[C@@H](Cc2ccc(O)cc2)C(=O)O)CCC(=O)NCCCC[C@H](NC1=O)C(=O)N[C@@H](Cc1ccc(O)cc1)C(=O)N1CCC[C@H]1C(=O)N3` [MvB_CPcy3 (4)] (H-FGTTLKYPSDWEEY-OH; ester 4-10, 9-12; lactam 6-13), the IC50 in series [1] was determined as 0.33 ± 0.02 µM.

Turning to `CC[C@H](C)[C@H](NC(=O)[C@@H](N)CCCCNC(=O)CCCC[C@@H]1SC[C@@H]2NC(=O)N[C@@H]21)C(=O)N[C@@H](CO)C(=O)N[C@@H]1C(=O)N[C@@H](CCCNC(=N)N)C(=O)N[C@H]2CCCCNC(=O)CC[C@@H](C(=O)N[C@@H](Cc3c[nH]c4ccccc34)C(=O)O)NC(=O)[C@@H]3CCC(=O)OC[C@H](NC(=O)[C@@H]4CCCN4C(=O)[C@H](Cc4ccc(O)cc4)NC2=O)C(=O)N[C@@H](CC(=O)O[C@@H]1C)C(=O)N[C@@H](Cc1c[nH]c2ccccc12)C(=O)N3` [MvJ_CP_N(Bio)cy3 (2)] (H-K(Biotin)ISTRKYPSDWEEW-OH; ester 4-10, 9-12; lactam 6-13), the IC50 at bovine trypsin is 3.53 ± 0.3 µM. Molecule `CC(C)C[C@@H]1NC(=O)[C@@H](NC(=O)[C@@H](NC(=O)CNC(=O)[C@H](Cc2ccccc2)NS(=O)(=O)c2cccc3c(N(C)C)cccc23)[C@@H](C)O)[C@@H](C)OC(=O)C[C@@H]2NC(=O)[C@@H]3COC(=O)CC[C@H](NC(=O)[C@H](Cc4c[nH]c5ccccc45)NC2=O)C(=O)N[C@H](C(=O)N[C@@H](Cc2ccc(O)cc2)C(=O)O)CCC(=O)NCCCC[C@H](NC1=O)C(=O)N[C@@H](Cc1ccc(O)cc1)C(=O)N1CCC[C@H]1C(=O)N3` [MvB_CP_N(Dansyl)cy3 (6)] (Dansyl-FGTTLKYPSDWEEY-OH; ester 4-10, 9-12; lactam 6-13) yielded an IC50 in series [1] of 28 ± 7.17 µM. In the case of `CC[C@H](C)[C@H](N)C(=O)N[C@@H](CO)C(=O)N[C@@H]1C(=O)N[C@@H](CCCNC(=N)N)C(=O)N[C@H]2CCCCNC(=O)CC[C@@H](C(=O)N[C@@H](Cc3c[nH]c4ccccc34)C(=O)O)NC(=O)[C@@H]3CCC(=O)OC[C@H](NC(=O)[C@@H]4CCCN4C(=O)[C@H](Cc4ccc(O)cc4)NC2=O)C(=O)N[C@@H](CC(=O)O[C@@H]1C)C(=O)N[C@@H](Cc1c[nH]c2ccccc12)C(=O)N3` [MvJ_CPcy3 (1)] (H-ISTRKYPSDWEEW-OH; ester 3-9, 8-11; lactam 5-12), it took 1.09 ± 0.09 µM to reach half-maximal inhibition on bovine trypsin (IC50).

Turning to `CC(C)C[C@@H]1NC(=O)[C@@H](NC(=O)[C@@H](NC(=O)CNC(=O)[C@H](Cc2ccccc2)NC(=O)[C@@H](N)CCCCNC(=O)CCCC[C@@H]2SC[C@@H]3NC(=O)N[C@@H]32)[C@@H](C)O)[C@@H](C)OC(=O)C[C@@H]2NC(=O)[C@@H]3COC(=O)CC[C@H](NC(=O)[C@H](Cc4c[nH]c5ccccc45)NC2=O)C(=O)N[C@H](C(=O)N[C@@H](Cc2ccc(O)cc2)C(=O)O)CCC(=O)NCCCC[C@H](NC1=O)C(=O)N[C@@H](Cc1ccc(O)cc1)C(=O)N1CCC[C@H]1C(=O)N3` [MvB_CP_N(Bio)cy3 (5)] (H-K(Biotin)FGTTLKYPSDWEEY-OH; ester 5-11, 10-13; lactam 7-14), half-maximal inhibition in series [1] (IC50) required 1.24 ± 0.64 µM.
